These are literature values, as cited in patent publication US20120136048A1, “TOPICAL, PERIOCULAR, OR INTRAOCULAR USE OF TOCOTRIENOLS FOR THE TREATMENT OF OPHTHALMIC DISEASES” (priority 2009, published 2012).

Structures are written as SMILES.

For this series the following is noted: rat ocular tissues, every tissue to which it was administered.

With `Cc1c(C)c2c(c(C)c1O)CC[C@@](C)(CCC[C@H](C)CCC[C@H](C)CCCC(C)C)O2` [alpha-tocopherol], the “concentration in ocular tissues after topical ophthalmic administration” value is recorded as “no significant increase”. On to `CC(C)=CCC/C(C)=C/CC/C(C)=C/CC[C@]1(C)CCc2c(C)c(O)c(C)c(C)c2O1` [alpha-tocotrienol, Alpha-Tocotrienol], for which the “concentration in ocular tissues after topical ophthalmic administration” value is given as “increased markedly”.
